Among the data in article PMC11489226 (Archives of Toxicology, 2024) are Concentration in plasma and concentration values, retold here.

A short description of the data set: PCB concentrations in plasma of HELPcB participants (2010). The data set is classed as in vivo, human. Conditions: sample of 2010; for concentration at 2010 calendar year / concentration at 2010 calendar year of sampling: human, plasma, other: occupational exposure.

On to `Clc1cc(Cl)c(-c2cc(Cl)c(Cl)cc2Cl)cc1Cl` [PCB153], for which the Concentration in plasma (HELPcB participant AD) stood at 1.397 ng/mL; the Concentration in plasma (HELPcB participant AE) was 1.227 ng/mL; the Concentration in plasma (HELPcB participant eight) came to 0.59 ng/mL; the Concentration in plasma (HELPcB participant five) turned out to be 1.765 ng/mL; the Concentration in plasma (HELPcB participant four) was determined as 0.855 ng/mL; the Concentration in plasma (HELPcB participant one) worked out at 1.907 ng/mL. Also, the Concentration in plasma runs as follows: (HELPcB participant seven) 1.081 ng/mL; (HELPcB participant six) 15.630 ng/mL; (HELPcB participant three) 1.254 ng/mL; (HELPcB participant two) 0.945 ng/mL.
For the molecule `Clc1cc(Cl)c(-c2cc(Cl)c(Cl)c(Cl)c2Cl)cc1Cl` [PCB180], the concentration at 2010 calendar year by setting is: (HELPcB participant AD) 1.16 ng/mL; (HELPcB participant AE) 1.28 ng/mL; (HELPcB participant eight) 0.377 ng/mL; (HELPcB participant five) 0.951 ng/mL; (HELPcB participant four) 0.508 ng/mL; (HELPcB participant seven) 0.934 ng/mL. This molecule also showed a concentration at 2010 calendar year (HELPcB participant six) of 8.85 ng/mL and a concentration at 2010 calendar year (HELPcB participant three) of 0.95 ng/mL. The concentration at 2010 calendar year of sampling by setting is: (HELPcB participant one) 0.998 ng/mL; (HELPcB participant two) 0.612 ng/mL.
On to `Clc1cc(Cl)c(-c2ccc(Cl)c(Cl)c2Cl)cc1Cl` [PCB138], for which the Concentration in plasma amounted to 0.984 ng/mL (HELPcB participant AD); 0.773 ng/mL (HELPcB participant AE); 0.358 ng/mL (HELPcB participant eight); 1.886 ng/mL (HELPcB participant five); 0.610 ng/mL (HELPcB participant four); 2.083 ng/mL (HELPcB participant one). Besides, the Concentration in plasma was found to be 0.738 ng/mL (HELPcB participant seven), 14.883 ng/mL (HELPcB participant six), 1.047 ng/mL (HELPcB participant three) and 0.718 ng/mL (HELPcB participant two).
